This note sets out measurements from PubChem BioAssay AID330 (DTP/NCI, 2004).

Each structure is given as a SMILES string. “And” between values parts separate entries of the source, which are not always exact repeats. Equal values may be shown once. Inconclusive results and toxic doses are left out.

In the assay the test system is P388 leukemia ip, CD2F1 mice, survival T/C. In words: NCI In Vivo Anticancer Drug Screen. Data for tumor model P388 Leukemia (intraperitoneal) in CD2F1 (CDF1) mice. The following applies: endpoint: median survival time, higher = longer survival. In a few lines: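 Mice carrying the transplanted tumor received test compound or vehicle. Survival was recorded in each group, and the value is the treated-group measurement divided by that of the vehicle-treated control group.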

[1] abbreviates: dose: 50.0 mg/kg/injection, schedule: Q01DX005 (ip), vehicle: Klucel (hydroxypropylcellulose) (HPC).
The mark [2] stands for this setting: dose: 100.0 mg/kg/injection, schedule: Q01DX005 (ip), vehicle: Klucel (hydroxypropylcellulose) (HPC).
The mark [3] stands for this setting: dose: 60.0 mg/kg/injection, schedule: Q01DX005 (ip), vehicle: saline with Tween-80.
[4] abbreviates: dose: 120.0 mg/kg/injection, schedule: Q01DX005 (ip), vehicle: saline with Tween-80.
Setting [5] is: dose: 60.0 mg/kg/injection, schedule: Q01DX005 (ip), vehicle: saline.

As to `Cc1cc2c(cc1C)NC1C(=O)C(c3ccc(Cl)c(Cl)c3)OC1=N2` (configuration not stated), the T/C is 91 % of control (dose: 30.0 mg/kg/injection, schedule: Q01DX005 (ip), vehicle: Klucel (hydroxypropylcellulose) (HPC)); 91 % of control (dose: 60.0 mg/kg/injection, schedule: Q01DX005 (ip), vehicle: Klucel (hydroxypropylcellulose) (HPC)); 93 % of control (dose: 120.0 mg/kg/injection, schedule: Q01DX005 (ip), vehicle: Klucel (hydroxypropylcellulose) (HPC)); 86 % of control (dose: 240.0 mg/kg/injection, schedule: Q01DX005 (ip), vehicle: Klucel (hydroxypropylcellulose) (HPC)).

On to `CCOc1c(N=Nc2cccc(Cl)c2)c(-c2ccccc2)nn1C(=S)S`, for which the T/C is, setting by setting: (dose: 0.78 mg/kg/injection, schedule: Q01DX005 (ip), vehicle: saline with Tween-80) 100 % of control; (dose: 1.56 mg/kg/injection, schedule: Q01DX005 (ip), vehicle: saline with Tween-80) 99 % of control; (dose: 3.13 mg/kg/injection, schedule: Q01DX005 (ip), vehicle: saline with Tween-80) 100 % of control; (dose: 6.25 mg/kg/injection, schedule: Q01DX005 (ip), vehicle: saline with Tween-80) 99 % of control and 100 % of control.

Take `O=C1CCOCCCOCCC(=O)OCCCOC(=O)CCOCCCOCCC(=O)OCCCO1`: the T/C was 100 % of control under setting [1] and 105 % of control under setting [2].

For the compound `CC(=O)Nc1ccc(/C=N/NC(=O)CNC(=O)c2ccccc2)cc1`, the T/C runs as follows: under setting [3], 95 % of control; under setting [4], 86 % of control.

For `Clc1cc2c(cc1CO/N=C\c1ccc3c(c1)OCO3)OCO2`, the T/C is 90 % of control (dose: 50.0 mg/kg/injection, schedule: Q04DX003 (ip), vehicle: saline sonified); 95 % of control (dose: 100.0 mg/kg/injection, schedule: Q04DX003 (ip), vehicle: saline sonified); 90 % of control (dose: 200.0 mg/kg/injection, schedule: Q04DX003 (ip), vehicle: saline sonified).

Regarding `O=NNc1cncc(Cl)n1`, the T/C (dose: 3.12 mg/kg/injection, schedule: Q01DX009 (ip), vehicle: water) is 100 % of control; the T/C (dose: 6.25 mg/kg/injection, schedule: Q01DX009 (ip), vehicle: water) is 97 % of control; the T/C (dose: 12.5 mg/kg/injection, schedule: Q01DX009 (ip), vehicle: water) was 105 % of control; the T/C (dose: 25.0 mg/kg/injection, schedule: Q01DX009 (ip), vehicle: water) was 99 % of control; the T/C (dose: 50.0 mg/kg/injection, schedule: Q01DX009 (ip), vehicle: water) was 92 % of control and 97 % of control.

As for `c1ccc(-c2ccc[n+](C[n+]3cccc(-c4ccccn4)c3)c2)nc1`, the T/C runs as follows: under setting [5], 109 % of control; (dose: 120.0 mg/kg/injection, schedule: Q01DX005 (ip), vehicle: saline) 104 % of control; (dose: 240.0 mg/kg/injection, schedule: Q01DX005 (ip), vehicle: saline) 106 % of control.

As to `OCCN(CCO)c1cc(/C=C/c2c3ccccc3cc3ccccc23)nc2ccccc12`, the T/C runs as follows: (dose: 50.0 mg/kg/injection, schedule: Q01DX009 (ip), vehicle: saline with Tween-80) 89 % of control; (dose: 100.0 mg/kg/injection, schedule: Q01DX009 (ip), vehicle: saline with Tween-80) 93 % of control; (dose: 200.0 mg/kg/injection, schedule: Q01DX009 (ip), vehicle: saline with Tween-80) 92 % of control.

In the case of `O=C1c2cccc(NCCCNCCO)c2C(=O)c2cccc(NCCCNCCO)c21`, the T/C (dose: 12.5 mg/kg/injection, schedule: Q04DX002 (ip), vehicle: distilled water + Tween-80) is 110 % of control; the T/C (dose: 25.0 mg/kg/injection, schedule: Q04DX002 (ip), vehicle: distilled water + Tween-80) was 104 % of control; the T/C (dose: 50.0 mg/kg/injection, schedule: Q04DX002 (ip), vehicle: distilled water + Tween-80) is 111 % of control.

With `C[n+]1c(-c2cccc(OCCCCCCCCOc3cccc(-c4c5cc(N)ccc5c5ccc(N)cc5[n+]4C)c3)c2)c2cc(N)ccc2c2ccc(N)cc21`, the T/C reads like this: (dose: 0.09 mg/kg/injection, schedule: Q01DX009 (ip), vehicle: water) 163 % of control; (dose: 0.19 mg/kg/injection, schedule: Q01DX009 (ip), vehicle: water) 154 % of control; (dose: 0.38 mg/kg/injection, schedule: Q01DX009 (ip), vehicle: water) 151 % of control; (dose: 0.39 mg/kg/injection, schedule: Q01DX009 (ip), vehicle: water) 170 % of control; (dose: 0.75 mg/kg/injection, schedule: Q01DX009 (ip), vehicle: water) 150 % of control; (dose: 0.78 mg/kg/injection, schedule: Q01DX009 (ip), vehicle: water) 179 % of control. Further, the T/C by setting is: (dose: 1.5 mg/kg/injection, schedule: Q01DX009 (ip), vehicle: water) 91 % of control; (dose: 1.56 mg/kg/injection, schedule: Q01DX009 (ip), vehicle: water) 213 % of control.

Regarding `C[C@H](CCC1=NC(C)(C)CO1)C1CCC2[C@@H]3C(O)C[C@@H]4CC(O)CC[C@]4(C)C3CC[C@@]21C` (some centres not stated), the T/C runs as follows: under setting [3], 90 % of control; under setting [4], 87 % of control.

Consider `O=C1Nc2cnc(Cl)nc2Nc2ccc(Cl)cc21`, for which the T/C runs as follows: under setting [1], 92 % of control; under setting [2], 99 % of control; (dose: 200.0 mg/kg/injection, schedule: Q01DX005 (ip), vehicle: Klucel (hydroxypropylcellulose) (HPC)) 89 % of control.

With `CCOC(=O)C1Nc2ccc(Br)cc2C(C(=O)OCC)N1c1ccc(Br)cc1` (configuration not stated), the T/C was 102 % of control (dose: 50.0 mg/kg/injection, schedule: Q01DX009 (ip), vehicle: Klucel (hydroxypropylcellulose) (HPC)); 102 % of control (dose: 100.0 mg/kg/injection, schedule: Q01DX009 (ip), vehicle: Klucel (hydroxypropylcellulose) (HPC)); 94 % of control (dose: 200.0 mg/kg/injection, schedule: Q01DX009 (ip), vehicle: Klucel (hydroxypropylcellulose) (HPC)).

In the case of `Cc1ccc2nc(CC(=O)c3cccnc3)c(CC(=O)c3cccnc3)nc2c1`, the T/C under setting [3] was 93 % of control; the T/C under setting [4] was 100 % of control; the T/C (dose: 240.0 mg/kg/injection, schedule: Q01DX005 (ip), vehicle: saline with Tween-80) was 100 % of control.

Turning to `CCOC1=N[C@H]2CCCC[C@H]2N1`, the T/C is, setting by setting: (dose: 15.0 mg/kg/injection, schedule: Q01DX005 (ip), vehicle: saline) 98 % of control; (dose: 30.0 mg/kg/injection, schedule: Q01DX005 (ip), vehicle: saline) 96 % of control; under setting [5], 102 % of control and 98 % of control.

Take `C[C@@H]1C[C@@]2(C)[C@@H](CC[C@@H]3[C@@H]2CC[C@@]2(C)[C@H]3CC[C@]2(C)O)CC1=O`: the T/C was 95 % of control (dose: 25.0 mg/kg/injection, schedule: Q01DX009 (ip), vehicle: saline sonified); 100 % of control (dose: 25.0 mg/kg/injection, schedule: Q04DX003 (ip), vehicle: saline with Tween-80); 86 % of control (dose: 50.0 mg/kg/injection, schedule: Q01DX009 (ip), vehicle: saline sonified); 100 % of control (dose: 50.0 mg/kg/injection, schedule: Q04DX003 (ip), vehicle: saline with Tween-80); 95 % of control (dose: 100.0 mg/kg/injection, schedule: Q01DX009 (ip), vehicle: saline sonified); 100 % of control (dose: 100.0 mg/kg/injection, schedule: Q04DX003 (ip), vehicle: saline with Tween-80).
